In PMC4545774, “Identification of inhibitors that target dual-specificity phosphatase 5 provide new insights into the binding requirements for the two phosphate pockets” (BMC Biochemistry, 2015):
Several values for one entry are separate records, joined by “and”; a condition that tells them apart may be missing. Identical values can stand only once. Entries after “also recorded” stand apart in the source; their conditions may differ. Like-named read-outs stand apart in the source and are kept apart here. Blank lines part the entries; values can stand above or below the compound they belong to.

Tests used:
[1] = Nephelometry (aggregation in solution); format: physicochemical; conditions: 10-100 μM, pH 7.5 buffer; for aggregation: nephelometry
Experimental: Nephelometry is a technique for measuring the relative aggregation of particles in solution, based on the light-scattering properties of molecular aggregates. We performed nephelometry to explore the ability of the chemicals studied herein to form aggregates, which can lead to artifactual inhibition effects. Compounds were tested for aggregation in 96-well plates using a buffer containing 100 mM Tris base, 100 mM sodium chloride, and 5 mM magnesium chloride at pH 7.5. Each compound analyzed in these experiments contained concentrations of compound ranging from 10-100 μM, recorded in quadruplet. Each plate was analyzed at two separate gain values of 52 and 72. Data were collected using a BMG NEPHELOstar Plus, equipped with a 635 nm laser.

[2] = target: T1, DUSP5 PD(WT) (Homo sapiens, UniProt Q16690); assay: p-nitrophenol phosphate (pNPP) phosphatase activity / IC50 assay; format: biochemical; conditions: for effect of detergent on inhibition: presence vs absence of 0.5 % Triton X-100
T1 construct: hexa-histidine (N); made in house; host or cells: E. coli BL21(DE3)
T1 sequence (Q16690 178-319 limits assumed): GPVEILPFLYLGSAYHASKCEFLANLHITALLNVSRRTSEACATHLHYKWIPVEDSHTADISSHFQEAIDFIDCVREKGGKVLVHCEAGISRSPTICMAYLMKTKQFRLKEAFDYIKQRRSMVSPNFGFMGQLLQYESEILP
From the text: To measure enzymatic activity of the DUSP5 PD and the inhibitory capacity of selected molecules, an in vitro phosphatase assay was developed based on previous studies. In this assay, DUSP5 PD will dephosphorylate the substrate p-nitrophenol phosphate (pNPP, Sigma Aldrich), yielding p-nitrophenolate, which absorbs at 405 nm with an extinction coefficient of 18,000 M^−1 cm^−1.
Thus, an increase in absorbance at 405 nm corresponds to the turnover of pNPP to p-nitrophenolate. The assay was initially optimized in 1 mL quartz cuvettes, then was subsequently optimized for and validated in a 96-well plate format. All IC50 values were obtained using the 96-well plate assay format (see below). The assay buffer contained 100 mM Tris, 100 mM sodium chloride, 5 mM magnesium chloride, and 1 mM DTT at pH 7.5. The pNPP substrate was prepared as a 50 mM stock by dissolving the solid substrate in assay buffer. The DUSP5 PD and pNPP were assayed initially in a cuvette (1 mL total volume) and initial velocities were fitted to the Michaelis-Menten equation:1 v=VmaxS/Km+S where v is the initial velocity, Vmax is the maximum velocity, Km is the Michaelis constant, and [S] is the concentration of pNPP. Data were fitted using a nonlinear least squares fit to eq. 1, with GraphPad Prism 6 software.
For the 96-well plate validation assay, sodium orthovanadate (Sigma Aldrich) was utilized as a positive control for inhibition at a final concentration of 10 μM, to completely block DUSP5(WT) enzymatic activity. All plate assays were performed in standard 96-well clear bottom plates (Thermo Scientific Nunc) with a total assay volume of 200 μL, using a SpectraMax M5 Microplate Reader (Molecular Devices). The plate validation assay was performed with replicate columns of positive control wells, negative control wells and blank wells. Blank columns contained only buffer and pNPP. Negative control (uninhibited) contained buffer, pNPP, and DUSP5 PD(WT); and, positive control contained the same components, but also contained 10 μM sodium orthovanadate. The plate was then shaken and allowed to equilibrate in the spectrophotometer at 25 °C for 30 min. After incubation, 4 μL of a 50 μM enzyme stock was dispensed into appropriate wells utilizing a single-channel pipette. This produced a final enzyme concentration of 1 μM. Before a read was taken, the plate was shaken for five seconds. […] The endpoint reading was subsequently taken at 90 min after initiation of reaction.
IC50 values were obtained using the assay described above, in 96 well plates. The maximum inhibitor concentration screened in any plate was […] and the minimum screened concentration was 1 μM. The IC50 plate was designed so that the first column of wells served as blanks, with wells containing only buffer and substrate. The second column of wells functioned as the plate negative control, with each well containing buffer, substrate and enzyme. The remaining wells in the plate contained buffer, substrate, enzyme, and varying amounts of inhibitor, with inhibitor concentration increasing from left to right across the plate. Data points were collected at a minimum in triplicate, and inhibitor concentrations were chosen to provide data equally spread on a logarithmic scale. The composition of buffer and the concentrations of substrate and enzyme utilized were identical to those in the plate validation assay. After initiation and shaking, a ten-minute kinetic read was taken.
For each plate assayed, the slope values for all negative control wells were averaged and the measured value considered representative of full enzymatic activity.

[3] = target: T1, DUSP5 PD(WT); assay: as above; format: biochemical; conditions: 1 mL cuvettes, pNPP substrate
[4] = test system: T2, DUSP5 PD(C263S); assay: NMR binding assay (2D 1H-15N HSQC); design: species or system human; conditions: 250 μM RR505 or 500 μM CSD^3_2320, pH 6.8
T2 construct: a C-terminal phosphatase domain (PD); hexa-histidine (N); made in house; host or cells: E. coli BL21(DE3)
Experimental: NMR samples of DUSP5 PD(C263S) were prepared for 2D ^1H-^15N HSQC (heteronuclear single quantum coherence) spectral titration studies. The ^15 N-labeled DUSP5 PD(C263S) protein was concentrated using an Amicon Ultra-4 centrifugal device (Millipore) to 600 μM. NMR samples were prepared with the following conditions for RR505: 250 μM RR505, 250 μM DUSP5 PD(C263S), 10 % D2O, 50 mM potassium phosphate, 100 mM KCl, and 2 mM DTT at pH 6.8 and for CSD^3-2320: 0 or 500 μM CSD^3-2320, 500 μM DUSP5 PD(C263S), 10 % D2O, 50 mM potassium phosphate, 100 mM KCl, and 2 mM DTT at pH 6.8. NMR experiments were performed on a 500 MHz Varian NMR System using a triple resonance probe with z-axis gradients at 25 °C.

[5] = test system: panel of 21 phosphatases; assay: Screen against a panel of 21 phosphatases; format: biochemical; conditions: at up to 30 μM
[6] = target: T3, full length DUSP5 (Homo sapiens, UniProt Q16690); assay: ERK dephosphorylation assay (full-length DUSP5, pERK2 substrate, Western blot); format: biochemical; conditions: full length DUSP5, pERK2 as substrate
T3 construct: in the more biologically relevant assay with full length DUSP5 and using pERK2 as substrate; made in house
T3 sequence (Q16690 1-384): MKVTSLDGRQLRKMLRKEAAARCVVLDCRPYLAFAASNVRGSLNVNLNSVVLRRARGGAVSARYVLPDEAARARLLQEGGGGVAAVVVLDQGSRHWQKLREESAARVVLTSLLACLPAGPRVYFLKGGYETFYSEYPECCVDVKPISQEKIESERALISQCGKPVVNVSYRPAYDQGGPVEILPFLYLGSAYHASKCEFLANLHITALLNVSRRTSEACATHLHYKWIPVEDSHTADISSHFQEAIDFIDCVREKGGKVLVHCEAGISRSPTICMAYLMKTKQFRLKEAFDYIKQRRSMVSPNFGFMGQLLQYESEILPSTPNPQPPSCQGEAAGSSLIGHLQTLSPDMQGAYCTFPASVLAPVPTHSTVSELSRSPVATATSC
Experimental: For this assay, 10 ng of GST-tagged recombinant phosphorylated ERK2 (R&D Systems, 1230-KS) was incubated with and without the indicated DUSP5 proteins (0.5 nM final concentration) for 15 min at room temperature, with or without the indicated drugs. The reactions were halted with 2x Laemmli sample buffer and subjected to SDS-PAGE. The proteins were transferred to polyvinylidene difluoride (PVDF) and immunoblotted using antibodies to pERK (Cell Signaling Tech., #9106) and total ERK, which includes both phosphorylated and unphosphorylated ERK1 and ERK2 (Cell Signaling Tech., #9102). Bound antibodies were visualized using horseradish peroxidase-linked anti-mouse IgG (Cell Signaling Tech, #7076S) and anti-rabbit IgG (Cell Signaling Tech, #7074S), respectively, and ECL reagents (Pierce, #34708) according to the manufacturer’s protocol. For calculating IC50 values, gel bands were imaged by chemiluminescence with either film or digital image capture by a FluorChem HD2 imager (Alpha Innotech). Density of each band was quantified with ImageJ software by using the gel analysis tool. Relative values of phosphorylated ERK present for each drug concentration treatment compared to pERK only controls were calculated. These relative values were then used to obtain IC50 values with GraphPad Prism 6 software. […]

[7] = pNPP as substrate, Michaelis-Menten fit, 1 mL cuvette

SMILES: Cc1ccc(C(=O)Nc2ccc(S(=O)(=O)O)c3cc(S(=O)(=O)O)cc(S(=O)(=O)O)c23)cc1NC(=O)c1cccc(NC(=O)Nc2cccc(C(=O)Nc3cc(C(=O)Nc4ccc(S(=O)(=O)O)c5cc(S(=O)(=O)O)cc(S(=O)(=O)O)c45)ccc3C)c2)c1 [Suramin]
concentration at which aggregates start forming [1]: around 25 μM
aggregation [1]: forms aggregates in vitro
inhibition at 1 µM ([2]; 1 μM suramin, 5 mM pNPP, read-out: plateau level of inhibition with increasing Triton X-100): 30%
Ki ([2]; competitive versus pNPP, absence of Triton X-100): 24.6 µM and 25 µM
effect of detergent on inhibition [2]: loss and loss of some inhibitory capability
effect of detergent on inhibition ([2]; listed as suramin): detergent decreases suramin inhibition
mode of inhibition ([2]; varied pNPP and inhibitor): competitive inhibitor; also recorded: competitive inhibition

SMILES: [Na+].[Na+].[Na+].[O]=[V]([O-])([O-])[O-] [sodium orthovanadate]
IC50 [3]: 0.088 ± 0.008 µM

SMILES: O=[N+]([O-])c1ccc(OP(=O)(O)O)cc1 [pNPP, p-nitrophenol phosphate]
Km [2, 7]: 7.6 ± 0.4 mM
Vmax [2, 7]: 1.35 ± 0.02 × 10^−3 μmol/min

SMILES: O=S(=O)([O-])c1cc(S(=O)(=O)[O-])c2[nH]c3c(S(=O)(=O)[O-])cc(S(=O)(=O)[O-])cc3c2c1.[Na+].[Na+].[Na+].[Na+] [RR506, Carbazole-1,3,6,8-tetrasulfonic acid, tetrasodium salt]
aggregation [1]: do not appear to form aggregates
IC50 ([2]; pNPP substrate, 96-well plate, Triton X-100 at 0.1 %, read-out: IC50 from enzyme assay): 16000 ± 2000 µM

aggregation [1]: do not appear to form aggregates
effect of detergent on inhibition [2]: no detergent-effect
SMILES: O=S(=O)(O)c1ccc2c(S(=O)(=O)O)cc(S(=O)(=O)O)cc2c1 [NTS, Naphthalene trisulfonate]

binding by HSQC cross-peak shifts [4]: direct binding
binding by HSQC cross-peak shifts ([4]; listed as CSD3_2320): binding
aggregation ([1]; listed as CSD3_2320): no tendency
IC50 ([6]; read-out: IC50 (mean)): 33 µM
IC50 ([6]; read-out: IC50 (range)): 8 to 96 µM
IC50 ([2]; phosphatase domain alone, pNPP as substrate, read-out: IC50): 32700 µM and 33000 µM
SMILES: O=S(=O)(O)c1cc(O)c2c(S(=O)(=O)O)cccc2c1 [CSD^3_2320]
inhibition of panel phosphatases [5]: not inhibit any of them significantly
aggregation [1]: does not aggregate; also recorded: no propensity to aggregate; also recorded: no tendency to aggregate
